Results on 15 compounds are retold here after publication PMC10268488, “Indole-carbohydrazide linked phenoxy-1,2,3-triazole-N-phenylacetamide derivatives as potent α-glucosidase inhibitors: design, synthesis, in vitro α-glucosidase inhibition, and computational studies” (BMC Chemistry, 2023).

Each structure is given as a SMILES string. Where two headings read alike, the source gives them in different places.

Usually IC50 stands for the point on the concentration scale where inhibition reaches its midpoint. Usually melting point stands for the temperature, or range, at which the solid turns liquid. The term Ki denotes a measure of affinity in units of concentration, obtained from inhibition or displacement. Low readings indicate higher affinity, high ones lower affinity.

Series [1] addresses T1, yeast α-glucosidase (Saccharomyces cerevisiae, UniProt P53341). The series can be described thus: biochemical. The format is biochemical. As to conditions: for diminished inhibitory activity relative to compound 11d: replacement of methoxy substituent of 11d.
The target in series [2] is T1, yeast α-glucosidase. The series can be described thus: Kinetic study of α-glucosidase inhibition (Lineweaver–Burk plots). As to conditions: for mechanism of α-glucosidase inhibition: Lineweaver–Burk plots, both Vmax and Km decreased; for Ki: Lineweaver–Burk secondary plot, substrate p-nitrophenyl-glucopyranoside 1–4 mM. The format is biochemical. The text has this: Then, the Lineweaver-Burke plots were depicted using by the reciprocal of velocity and substrate concentration (Fig. 5).

Series [3] relates to normal human dermal fibroblast (HDF) cell line. The series can be described thus: In vitro cytotoxicity assay. The format is cell-based. To be noted: HDF cells, 50 μM concentration. On the procedure: To assess of the cytotoxic effects of the new synthesized compounds, cytotoxicity of compounds 11d and 11n as the representative compounds was evaluated against the normal human dermal fibroblast (HDF) cell line.
Evaluation of cytotoxic effects of the synthesized compounds 11d and 11n was performed exactly based on our previous report.

Setting [4] is: read-out: IC50 (anti-α-glucosidase activity).

T1 sequence (P53341 whole entry): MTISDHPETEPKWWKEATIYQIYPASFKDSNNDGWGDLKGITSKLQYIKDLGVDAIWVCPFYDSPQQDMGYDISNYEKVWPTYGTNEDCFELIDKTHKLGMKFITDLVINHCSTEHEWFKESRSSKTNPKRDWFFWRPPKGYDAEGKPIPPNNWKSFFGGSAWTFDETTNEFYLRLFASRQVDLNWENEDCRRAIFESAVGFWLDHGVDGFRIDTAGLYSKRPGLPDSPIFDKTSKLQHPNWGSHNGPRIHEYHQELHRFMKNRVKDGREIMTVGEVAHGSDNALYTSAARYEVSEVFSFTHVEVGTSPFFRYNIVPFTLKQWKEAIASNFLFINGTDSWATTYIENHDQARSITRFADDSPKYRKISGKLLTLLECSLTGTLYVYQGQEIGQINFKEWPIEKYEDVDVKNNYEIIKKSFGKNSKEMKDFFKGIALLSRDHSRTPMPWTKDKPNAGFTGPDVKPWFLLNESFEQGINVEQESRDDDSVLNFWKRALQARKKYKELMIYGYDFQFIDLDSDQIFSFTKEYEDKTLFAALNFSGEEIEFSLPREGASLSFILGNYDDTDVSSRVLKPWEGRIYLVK

`O=C(Cn1cc(COc2ccc(/C=N/NC(=O)c3cc4ccccc4[nH]3)cc2)nn1)Nc1ccccc1` [Compound 11a, (E)-2-(4-((4-((2-(1H-indole-2-carbonyl)hydrazono)methyl)phenoxy)methyl)-1H-1,2,3-triazol-1-yl)-N-phenylacetamide] showed a melting point of 194 to 196 °C. The IC50 at yeast α-glucosidase [1] (setting [4]) was determined as 15.2 ± 0.18 µM.
`Cc1ccccc1NC(=O)Cn1cc(COc2ccc(/C=N/NC(=O)c3cc4ccccc4[nH]3)cc2)nn1` [Compound 11b, (E)-2-(4-((4-((2-(1H-indole-2-carbonyl)hydrazono)methyl)phenoxy)methyl)-1H-1,2,3-triazol-1-yl)-N-(o-tolyl)acetamide]: the IC50 at yeast α-glucosidase [1] (setting [4]) turned out to be 8.88 ± 0.07 µM. In addition, on yeast α-glucosidase [2], the “mechanism of α-glucosidase inhibition” value is on record as “uncompetitive inhibitors” and the inhibition constant (Ki) amounted to 8.5 µM.
Turning to `Cc1ccc(NC(=O)Cn2cc(COc3ccc(/C=N/NC(=O)c4cc5ccccc5[nH]4)cc3)nn2)cc1` [Compound 11c, (E)-2-(4-((4-((2-(1H-indole-2-carbonyl)hydrazono)methyl)phenoxy)methyl)-1H-1,2,3-triazol-1-yl)-N-(p-tolyl)acetamide], the IC50 on yeast α-glucosidase [1] (setting [4]) was determined as 19.12 ± 0.08 µM. In addition, the “diminished inhibitory activity relative to compound 11d” value at yeast α-glucosidase [1] turned out to be 3 folds.
Take `COc1ccc(NC(=O)Cn2cc(COc3ccc(/C=N/NC(=O)c4cc5ccccc5[nH]4)cc3)nn2)cc1` [Compound 11d, (E)-2-(4-((4-((2-(1H-indole-2-carbonyl)hydrazono)methyl)phenoxy)methyl)-1H-1,2,3-triazol-1-yl)-N-(4-methoxyphenyl)acetamide]: the “times more potent than acarbose” value at yeast α-glucosidase [1] (ratio of IC50 values vs acarbose) is 118.8 times. Also, at yeast α-glucosidase [1] (setting [4]), the IC50 came to 6.31 ± 0.03 µM. Also, in series [3], the “cytotoxicity on normal cell line” value is given as “non-cytotoxic”. At yeast α-glucosidase [2], the “mechanism of α-glucosidase inhibition” value is reported as “uncompetitive inhibitors” and the inhibitory constant (Ki) was 6.3 µM.
As to `O=C(Cn1cc(COc2ccc(/C=N/NC(=O)c3cc4ccccc4[nH]3)cc2)nn1)Nc1ccccc1Cl` [Compound 11e, (E)-2-(4-((4-((2-(1H-indole-2-carbonyl)hydrazono)methyl)phenoxy)methyl)-1H-1,2,3-triazol-1-yl)-N-(2-chlorophenyl)acetamide], the melting point is over 250 °C. The compound further had an IC50 at yeast α-glucosidase [1] of 26.97 ± 0.25 µM.
Regarding `O=C(Cn1cc(COc2ccc(/C=N/NC(=O)c3cc4ccccc4[nH]3)cc2)nn1)Nc1ccc(Cl)cc1` [Compound 11f, (E)-2-(4-((4-((2-(1H-indole-2-carbonyl)hydrazono)methyl)phenoxy)methyl)-1H-1,2,3-triazol-1-yl)-N-(4-chlorophenyl)acetamide], the melting point is 174 to 176 °C. Further, the IC50 at yeast α-glucosidase [1] (setting [4]) was 9.53 ± 0.12 µM. The “diminished inhibitory activity relative to compound 11d” value on yeast α-glucosidase [1] is recorded as 1.5 folds.
For `O=C(Cn1cc(COc2ccc(/C=N/NC(=O)c3cc4ccccc4[nH]3)cc2)nn1)Nc1ccc(Br)cc1` [Compound 11g, (E)-2-(4-((4-((2-(1H-indole-2-carbonyl)hydrazono)methyl)phenoxy)methyl)-1H-1,2,3-triazol-1-yl)-N-(4-bromophenyl)acetamide], the half-inhibitory concentration (IC50) on yeast α-glucosidase [1] (setting [4]) was determined as 49.89 ± 0.09 µM. For the same compound, the “diminished inhibitory activity relative to compound 11d” value at yeast α-glucosidase [1] was determined as 8 folds.
With `Cc1cc(NC(=O)Cn2cc(COc3ccc(/C=N/NC(=O)c4cc5ccccc5[nH]4)cc3)nn2)ccc1[N+](=O)[O-]` [Compound 11h, (E)-2-(4-((4-((2-(1H-indole-2-carbonyl)hydrazono)methyl)phenoxy)methyl)-1H-1,2,3-triazol-1-yl)-N-(3-methyl-4-nitrophenyl)acetamide], the melting point lay within 200 to 202 °C. The same compound gave a concentration for half-maximal inhibition (IC50) against yeast α-glucosidase [1] of 35.11 ± 0.07 µM.
At yeast α-glucosidase [1], `COc1cc(/C=N/NC(=O)c2cc3ccccc3[nH]2)ccc1OCc1cn(CC(=O)Nc2ccccc2)nn1` [Compound 11i, (E)-2-(4-((4-((2-(1H-indole-2-carbonyl)hydrazono)methyl)-2-methoxyphenoxy)methyl)-1H-1,2,3-triazol-1-yl)-N-phenylacetamide] displayed a 50% inhibitory concentration (IC50) of 11.3 ± 0.15 µM.
Turning to `COc1ccc(NC(=O)Cn2cc(COc3ccc(/C=N/NC(=O)c4cc5ccccc5[nH]4)cc3OC)nn2)cc1` [Compound 11j, (E)-2-(4-((4-((2-(1H-indole-2-carbonyl)hydrazono)methyl)-2-methoxyphenoxy)methyl)-1H-1,2,3-triazol-1-yl)-N-(4-methoxyphenyl)acetamide], the IC50 at yeast α-glucosidase [1] (setting [4]) is 24.19 ± 0.1 µM.
In the case of `COc1cc(/C=N/NC(=O)c2cc3ccccc3[nH]2)ccc1OCc1cn(CC(=O)Nc2ccc(Cl)cc2)nn1` [Compound 11k, (E)-2-(4-((4-((2-(1H-indole-2-carbonyl)hydrazono)methyl)-2-methoxyphenoxy)methyl)-1H-1,2,3-triazol-1-yl)-N-(4-chlorophenyl)acetamide], the melting point lay in the range of 184 to 186 °C. On yeast α-glucosidase [1] (setting [4]), the IC50 was determined as 31.56 ± 0.12 µM.
Consider `COc1cc(/C=N/NC(=O)c2cc3ccccc3[nH]2)ccc1OCc1cn(CC(=O)Nc2cccc(Cl)c2Cl)nn1` [Compound 11l, (E)-2-(4-((4-((2-(1H-indole-2-carbonyl)hydrazono)methyl)-2-methoxyphenoxy)methyl)-1H-1,2,3-triazol-1-yl)-N-(2,3-dichlorophenyl)acetamide], for which the IC50 against yeast α-glucosidase [1] worked out at 18.2 ± 0.81 µM.
With `COc1cc(/C=N/NC(=O)c2cc3ccccc3[nH]2)ccc1OCc1cn(CC(=O)Nc2cc(Cl)cc(Cl)c2)nn1` [Compound 11m, (E)-2-(4-((4-((2-(1H-indole-2-carbonyl)hydrazono)methyl)-2-methoxyphenoxy)methyl)-1H-1,2,3-triazol-1-yl)-N-(3,5-dichlorophenyl)acetamide], the melting point was 247 to 249 °C. Also, the IC50 at yeast α-glucosidase [1] turned out to be 14.2 ± 0.21 µM.
Take `COc1cc(/C=N/NC(=O)c2cc3ccccc3[nH]2)ccc1OCc1cn(CC(=O)Nc2ccc(Br)cc2)nn1` [Compound 11n, (E)-2-(4-((4-((2-(1H-indole-2-carbonyl)hydrazono)methyl)-2-methoxyphenoxy)methyl)-1H-1,2,3-triazol-1-yl)-N-(4-bromophenyl)acetamide]: the 50% inhibitory concentration (IC50) on yeast α-glucosidase [1] (setting [4]) worked out at 8.3 ± 0.16 µM. For the same compound, the “cytotoxicity on normal cell line” value in series [3] is given as “non-cytotoxic”. On yeast α-glucosidase [2], the “mechanism of α-glucosidase inhibition” value is given as “uncompetitive inhibitors” and affinity was put at a Ki of 8.3 µM.
`COc1cc(/C=N/NC(=O)c2cc3ccccc3[nH]2)ccc1OCc1cn(CC(=O)Nc2cccc([N+](=O)[O-])c2Cl)nn1` [Compound 11o, (E)-2-(4-((4-((2-(1H-indole-2-carbonyl)hydrazono)methyl)-2-methoxyphenoxy)methyl)-1H-1,2,3-triazol-1-yl)-N-(2-chloro-3-nitrophenyl)acetamide] registered a melting point of over 250 °C. The IC50 at yeast α-glucosidase [1] stood at 12.67 ± 0.05 µM.
